Among the data in ChEMBL document CHEMBL1136576, “Synthesis of N,N',N"-trisubstituted thiourea derivatives and their antagonist effect on the vanilloid receptor” (Bioorg Med Chem Lett, 2003) are IC50 and EC50 values, retold here.

The target in experiment [1] is T1, Vanilloid receptor (Rattus norvegicus, UniProt Q9ERZ8+Q9WUD2+O35433). The experiment is described as follows: Antagonistic activity against vanilloid receptor as concentration to reduce the response to […] by 50% from neonatal rat culture spinal sensory neurons using [Ca2+] -influx assay. In kind it is functional.
For experiment [2], the target named is T1, Vanilloid receptor. The experiment is described as follows: Agonistic activity towards vanilloid receptor, [Ca2+] influx in neonatal rat spinal sensory neuronal culture. Format: functional.

Usually IC50 stands for the concentration that gives 50% inhibition. Read a high IC50 as weaker potency in that assay. As a reminder, the EC50 is the concentration giving half of the maximal effect.

`COc1cc(CCCN(CCc2ccc([N+](=O)[O-])cc2)/C(S)=N/CCc2ccccc2)ccc1O` showed an IC50 at Vanilloid receptor [1] of 0.5 nM. This counts as sub-nanomolar.
The same measure, in the same setting: the result for `COc1cc(CCCN(CCc2ccc(C)cc2)/C(S)=N/CCc2ccccc2)ccc1O` reads 0.95 nM; that for `COc1cc(CCCN(/C(S)=N/CCc2ccccc2)C(c2ccccc2)c2ccccc2)ccc1O`, 0.46 nM.
Still for that read-out and setting: the result for `COc1cc(CCCN(Cc2ccccc2)/C(S)=N/CCc2ccccc2)ccc1O` reads 0.95 nM.
Regarding `COc1cc(CCCN(C)/C(S)=N/CCc2ccccc2)ccc1O`, the EC50 on Vanilloid receptor [2] is greater than 30000 nM.
In the case of `COc1cc(CCCN(CCc2ccc(Cl)cc2)/C(S)=N/CCc2ccccc2)ccc1O`, the IC50 against Vanilloid receptor [1] is 0.55 nM.
In turn, `COc1cc(CCCN(/C(S)=N/CCc2ccccc2)C2CCCCC2)ccc1O` returned an IC50 against Vanilloid receptor [1] of 3 nM.
With `CC(C)N(CCCc1ccc(O)c(O)c1)/C(S)=N/CCc1ccccc1`, on Vanilloid receptor [1], the concentration for half-maximal inhibition (IC50) is 9.3 nM. Against the preceding compound, the IC50 is about 3.1-fold higher.
The compound `CCN(CCCc1ccc(O)c(OC)c1)/C(S)=N/CCc1ccccc1` displayed an IC50 on Vanilloid receptor [1] greater than 30 nM.
For the compound `CCCN(CCCc1ccc(O)c(OC)c1)/C(S)=N/CCc1ccccc1`, the IC50 on Vanilloid receptor [1] is 12 nM.
On to `CC(C)N(CCCc1ccc(O)cc1)/C(S)=N/CCc1ccccc1`, for which the IC50 on Vanilloid receptor [1] is listed as greater than 30 nM.
With `COc1cc(CCC/N=C(\S)NCCc2ccccc2)ccc1O`, at Vanilloid receptor [2], the EC50 is greater than 30000 nM.
At Vanilloid receptor [1], `COc1cc(CCCN(CCc2ccccc2)/C(S)=N/CCc2ccc(F)cc2)ccc1O` yielded an IC50 of 5.1 nM.
Consider `COc1ccc(CCCN(/C(S)=N/CCc2ccccc2)C(C)C)cc1OC`, for which the IC50 against Vanilloid receptor [1] stood at 10.5 nM.
On Vanilloid receptor [1], `COc1cc(CCCN(CCc2ccc(F)cc2)/C(S)=N/CCc2ccccc2)ccc1O` showed an IC50 of 1.2 nM. Against the preceding compound, the IC50 is about 8.8-fold lower.
The compound `COc1cc(CCCCN(CCc2ccccc2)/C(S)=N/CCc2ccccc2)ccc1O` yielded an IC50 on Vanilloid receptor [1] of 6.1 nM. This IC50 lies about 5.1-fold higher than the previous one.
The same measure, in the same setting: the result for `COc1ccc(CCN(CCCc2ccc(O)c(OC)c2)/C(S)=N/CCc2ccccc2)cc1` reads 0.72 nM.
With `CCCCN(CCCc1ccc(O)c(OC)c1)/C(S)=N/CCc1ccccc1`, at Vanilloid receptor [1], the IC50 is listed as 10 nM. Compared with the last compound, the IC50 is about 14-fold higher.
Consider `CCCCCCCCN(CCCc1ccc(O)c(OC)c1)/C(S)=N/CCc1ccccc1`, for which the IC50 on Vanilloid receptor [1] is greater than 30 nM.
On Vanilloid receptor [1], `COc1cc(CCCN(CCCc2ccccc2)/C(S)=N/CCc2ccccc2)ccc1O` gave an IC50 of 3.2 nM.
For the compound `COc1cc(CCCN(CCc2ccccc2)/C(S)=N/CCc2ccccc2)ccc1O`, the IC50 against Vanilloid receptor [1] is on record as 0.32 nM. Against the preceding compound, the IC50 is about 10-fold lower.
At Vanilloid receptor [1], `COc1cc(CCCN(CCc2ccccc2)/C(S)=N/CCc2ccc(Cl)cc2)ccc1O` registered an IC50 of 2.4 nM. Compared with the last compound, the IC50 is about 7.5-fold higher.
Compound `COc1cc(CCCN(/C(S)=N/CCc2ccccc2)C(C)C)ccc1O` yielded an IC50 at Vanilloid receptor [1] of 2.5 nM. This IC50 and that of the compound before are within 1.5-fold of each other.
For the compound `COc1cc(CCC2CCCN2/C(S)=N/CCc2ccccc2)ccc1O` (stereo not given), the EC50 on Vanilloid receptor [2] was determined as 3000 nM. This lies in the single-digit micromolar range.
As for `Oc1cc2c(cc1O)CN(C(=S)NCCc1ccc(Cl)cc1)CCC2` [CAPSAZEPINE], on Vanilloid receptor [1], the 50% inhibitory concentration (IC50) was determined as 650000 nM.
